Source: ChEMBL document CHEMBL6087456 (J Med Chem, 2025)
In brackets after ≈: the same amount, converted by molar mass.

Legend:
[1] = test system: Plasmodium falciparum; experiment: Antiparasitic activity against asexual blood stage Plasmodium falciparum 3D7 incubated for 72 hrs by SYBR Green assay; format: functional, organism-based; settings: 3D7, 72 h
[2] = Kinetic solubility of compound at pH 6.5 measured after 30 mins by nephelometry; format: physicochemical; settings: buffer; for solubility kinetic at 0.5 h: pH 6.5, read-out: Kinetic_solubility; for Kinetic_solubility: pH 6.5, 0.5 h
[3] = molecular target: T1, Dihydroorotate dehydrogenase (quinone), mitochondrial (Plasmodium falciparum (isolate 3D7), UniProt Q08210); experiment: Inhibition of N-terminal His6-tagged recombinant Plasmodium falciparum DHODH (158 to 569 residues) N-terminally truncated soluble domain extracted from Escherichia coli phage resistant BL21-DE3 using CoQD/DHA/DCIP as substrates
T1 sequence (Q08210 whole entry): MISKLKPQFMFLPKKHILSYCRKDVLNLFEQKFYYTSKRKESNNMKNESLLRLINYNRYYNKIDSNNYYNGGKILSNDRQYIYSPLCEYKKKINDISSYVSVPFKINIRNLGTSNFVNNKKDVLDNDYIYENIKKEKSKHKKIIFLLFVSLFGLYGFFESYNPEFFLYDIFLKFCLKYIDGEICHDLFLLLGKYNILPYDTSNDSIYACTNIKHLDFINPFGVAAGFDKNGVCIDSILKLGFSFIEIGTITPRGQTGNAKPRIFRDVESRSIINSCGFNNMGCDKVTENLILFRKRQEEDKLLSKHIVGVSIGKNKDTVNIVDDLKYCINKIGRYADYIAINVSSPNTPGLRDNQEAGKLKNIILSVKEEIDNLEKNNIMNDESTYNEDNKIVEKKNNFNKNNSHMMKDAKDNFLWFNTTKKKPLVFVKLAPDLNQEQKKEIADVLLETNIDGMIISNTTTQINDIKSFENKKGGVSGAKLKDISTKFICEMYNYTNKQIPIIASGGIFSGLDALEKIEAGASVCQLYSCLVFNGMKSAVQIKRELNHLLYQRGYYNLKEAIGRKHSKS

[4] = molecular target: Dihydroorotate dehydrogenase (quinone), mitochondrial (Homo sapiens, UniProt Q02127); experiment: Inhibition of C-terminal His6-tagged recombinant human DHODH (29 to 395 residues) N-terminally truncated soluble domain extracted from Escherichia coli phage resistant BL21-DE3 using CoQD/DHA/DCIP as substrates
[5] = Metabolic stability in human liver microsomes assessed as intrinsic clearance at 0.5 uM incubated for 60 mins in presence of NADPH by tandem quadrupole-Time of Flight MS; format: ADME, Microsome; settings: 1 h

Chain of Dihydroorotate dehydrogenase (quinone), mitochondrial (Homo sapiens, UniProt Q02127) (Q02127 whole entry, the tested form may be a part): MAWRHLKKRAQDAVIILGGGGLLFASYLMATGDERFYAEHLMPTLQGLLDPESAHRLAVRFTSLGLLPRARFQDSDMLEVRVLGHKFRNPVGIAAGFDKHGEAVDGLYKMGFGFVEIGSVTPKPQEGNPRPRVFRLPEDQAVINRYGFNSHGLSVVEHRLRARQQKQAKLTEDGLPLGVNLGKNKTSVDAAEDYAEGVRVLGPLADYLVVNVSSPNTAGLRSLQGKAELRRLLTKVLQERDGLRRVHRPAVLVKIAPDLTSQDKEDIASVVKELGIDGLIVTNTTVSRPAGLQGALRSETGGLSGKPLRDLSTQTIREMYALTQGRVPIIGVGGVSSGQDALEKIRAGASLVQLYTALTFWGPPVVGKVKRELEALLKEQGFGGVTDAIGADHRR

`CCn1cc(Cl)c2c(Cc3ccc(N4CCCCC4)nc3)n(C)nc2c1=O` gave an EC50 [1] of 62 nM, a solubility kinetic at 0.5 h [2] of 40 µM (≈ 15.4 µg/mL) and an IC50 [3] of 17 nM. For the same compound, the IC50 [4] was 5400 nM and the “intrinsic clearance (CLint)” value [5] was 160 µL/min/mg.
In the case of `Cn1nc2c(=O)n(C3CC3)cc(C3CC3)c2c1Cc1ccc(C(F)(F)F)nc1`, the EC50 [1] is reported as 32 nM, the solubility kinetic at 0.5 h [2] is reported as 65 µM (≈ 25.2 µg/mL) and the IC50 [3] is reported as 43 nM. For the same compound, the IC50 [4] was 17000 nM and the “intrinsic clearance (CLint)” value [5] was < 7 µL/min/mg.
In the case of `CCn1ccc2c(Cc3ccc(C(F)(F)F)nc3)n(C)nc2c1=O`, the EC50 [1] is reported as 580 nM, the Kinetic_solubility [2] is reported as > 300 µM and the IC50 [3] is reported as 1500 nM. For the same compound, the IC50 [4] was > 30000 nM and the “intrinsic clearance (CLint)” value [5] was < 7 µL/min/mg.
In the case of `CCn1cc(Cl)c2c(Cc3ccc(N4CCOCC4)nc3)n(C)nc2c1=O`, the EC50 [1] is reported as 370 nM, the solubility kinetic at 0.5 h [2] is reported as 65 µM (≈ 25.2 µg/mL) and the IC50 [3] is reported as 190 nM. For the same compound, the IC50 [4] was > 100000 nM and the “intrinsic clearance (CLint)” value [5] was 15 µL/min/mg.
Compound `CC[C@@](O)(c1ccc(F)c(Cl)c1)c1c2ccn(C3CC3)c(=O)c2nn1C` has an EC50 [1] of 1 nM, a solubility kinetic at 0.5 h [2] of 40 µM (≈ 15 µg/mL) and an IC50 [3] of 7 nM. For the same compound, the IC50 [4] was 700 nM and the “intrinsic clearance (CLint)” value [5] was 8.4 µL/min/mg.
With `Cn1nc2c(=O)n(C3CC3)ncc2c1[C@](O)(c1ccc(C(F)(F)F)c(C#N)c1)C(F)(F)F` the EC50 [1] was 1 nM, the solubility kinetic at 0.5 h [2] was 20 µM (≈ 9.15 µg/mL) and the IC50 [3] was 19 nM. For the same compound, the IC50 [4] was > 30000 nM and the “intrinsic clearance (CLint)” value [5] was < 3 µL/min/mg.
Work on `CCn1cc(C2CC2)c2c(CN3CCC4(CCC4)CC3)n(C)nc2c1=O` yielded an EC50 [1] of 15 nM, a solubility kinetic at 0.5 h [2] of 80 µM (≈ 28.4 µg/mL) and an IC50 [3] of 8 nM. For the same compound, the IC50 [4] was 22000 nM and the “intrinsic clearance (CLint)” value [5] was 130 µL/min/mg.
For `Cn1nc2c(=O)n(C3CC3)ccc2c1[C@](O)(c1ccc(C(F)(F)F)c(C#N)c1)C1CC1`, the EC50 [1] was 1 nM, the Kinetic_solubility [2] was < 5 µM and the IC50 [3] was 18 nM. The IC50 [4] was > 30000 nM and the “intrinsic clearance (CLint)” value [5] was < 3 µL/min/mg.
For `Cn1nc2c(=O)n(C3CC3)ccc2c1Cc1ccc(C(F)(F)F)c(C#N)c1`, the EC50 [1] was 81 nM, the solubility kinetic at 0.5 h [2] was 67 µM (≈ 24.9 µg/mL) and the IC50 [3] was 140 nM. The IC50 [4] was > 100000 nM and the “intrinsic clearance (CLint)” value [5] was < 7 µL/min/mg.
With `CCn1cc(C)c2c(Cc3ccc(C(F)(F)F)nc3)n(C)nc2c1=O` the EC50 [1] was 44 nM, the Kinetic_solubility [2] was > 280 µM and the IC50 [3] was 70 nM. For the same compound, the IC50 [4] was > 100000 nM and the “intrinsic clearance (CLint)” value [5] was < 7 µL/min/mg.
For `CCn1cc(C2CC2)c2c([C@H](N)c3ccc(C(F)(F)F)nc3)n(C)nc2c1=O`, the EC50 [1] was 27 nM, the Kinetic_solubility [2] was > 320 µM and the IC50 [3] was 180 nM. The IC50 [4] was > 100000 nM and the “intrinsic clearance (CLint)” value [5] was 3.8 µL/min/mg.
`CCn1cc(C2CC2)c2c(CN3CCC(F)(F)C(C)(C)C3)n(C)nc2c1=O` gave an EC50 [1] of 15 nM, a solubility kinetic at 0.5 h [2] of 12.5 µM (≈ 4.73 µg/mL) and an IC50 [3] of 21 nM. For the same compound, the IC50 [4] was > 30000 nM and the “intrinsic clearance (CLint)” value [5] was 160 µL/min/mg.
Work on `Cc1cn(C2CC2)c(=O)c2nn(C)c(Cc3ccc(C(F)(F)F)nc3)c12` yielded an EC50 [1] of 45 nM, a solubility kinetic at 0.5 h [2] of 130 µM (≈ 47.1 µg/mL) and an IC50 [3] of 89 nM. The IC50 [4] was 52000 nM and the “intrinsic clearance (CLint)” value [5] was < 7 µL/min/mg.
Work on `CCn1cc(C2CC2)c2c(Cc3ccc(C(F)(F)F)c(C#N)c3)n(C)nc2c1=O` yielded an EC50 [1] of 4 nM, a solubility kinetic at 0.5 h [2] of 15 µM (≈ 6.01 µg/mL) and an IC50 [3] of 15 nM. For the same compound, the IC50 [4] was 11000 nM and the “intrinsic clearance (CLint)” value [5] was 64 µL/min/mg.
With `CCn1cc(C2CC2)c2c(Cc3cnc(C(F)(F)F)c(OC)c3)n(C)nc2c1=O` the EC50 [1] was 17 nM, the solubility kinetic at 0.5 h [2] was 60 µM (≈ 24.4 µg/mL) and the IC50 [3] was 57 nM. For the same compound, the IC50 [4] was > 100000 nM and the “intrinsic clearance (CLint)” value [5] was 25 µL/min/mg.
`Cn1nc2c(=O)n(C3CC3)cnc2c1[C@](O)(c1ccc(C(F)(F)F)c(Cl)c1)C(F)(F)F` showed an EC50 [1] of 77000 nM, a solubility kinetic at 0.5 h [2] of 20 µM (≈ 9.34 µg/mL) and an IC50 [3] of 5 nM. For the same compound, the IC50 [4] was 6500 nM and the “intrinsic clearance (CLint)” value [5] was < 3 µL/min/mg.
Work on `CCn1cc(C2CC2)c2c(Cc3ccc(C(F)(F)F)c(F)c3)n(C)nc2c1=O` yielded an EC50 [1] of 8 nM, a solubility kinetic at 0.5 h [2] of 16 µM (≈ 6.29 µg/mL) and an IC50 [3] of 14 nM. For the same compound, the IC50 [4] was 14000 nM and the “intrinsic clearance (CLint)” value [5] was 52 µL/min/mg.
